# Experimental data taken from patent US8765773B2, “Substituted hydroxamic acids and uses thereof” (Millennium Pharmaceuticals, Inc., priority 2010, dated 2014).
# Molecular target: T1, purified human HDAC6 (Homo sapiens, UniProt Q9UBN7)
# T1 construct: purchased BPS Bioscience 5006
# T1 sequence (Q9UBN7 1-1215): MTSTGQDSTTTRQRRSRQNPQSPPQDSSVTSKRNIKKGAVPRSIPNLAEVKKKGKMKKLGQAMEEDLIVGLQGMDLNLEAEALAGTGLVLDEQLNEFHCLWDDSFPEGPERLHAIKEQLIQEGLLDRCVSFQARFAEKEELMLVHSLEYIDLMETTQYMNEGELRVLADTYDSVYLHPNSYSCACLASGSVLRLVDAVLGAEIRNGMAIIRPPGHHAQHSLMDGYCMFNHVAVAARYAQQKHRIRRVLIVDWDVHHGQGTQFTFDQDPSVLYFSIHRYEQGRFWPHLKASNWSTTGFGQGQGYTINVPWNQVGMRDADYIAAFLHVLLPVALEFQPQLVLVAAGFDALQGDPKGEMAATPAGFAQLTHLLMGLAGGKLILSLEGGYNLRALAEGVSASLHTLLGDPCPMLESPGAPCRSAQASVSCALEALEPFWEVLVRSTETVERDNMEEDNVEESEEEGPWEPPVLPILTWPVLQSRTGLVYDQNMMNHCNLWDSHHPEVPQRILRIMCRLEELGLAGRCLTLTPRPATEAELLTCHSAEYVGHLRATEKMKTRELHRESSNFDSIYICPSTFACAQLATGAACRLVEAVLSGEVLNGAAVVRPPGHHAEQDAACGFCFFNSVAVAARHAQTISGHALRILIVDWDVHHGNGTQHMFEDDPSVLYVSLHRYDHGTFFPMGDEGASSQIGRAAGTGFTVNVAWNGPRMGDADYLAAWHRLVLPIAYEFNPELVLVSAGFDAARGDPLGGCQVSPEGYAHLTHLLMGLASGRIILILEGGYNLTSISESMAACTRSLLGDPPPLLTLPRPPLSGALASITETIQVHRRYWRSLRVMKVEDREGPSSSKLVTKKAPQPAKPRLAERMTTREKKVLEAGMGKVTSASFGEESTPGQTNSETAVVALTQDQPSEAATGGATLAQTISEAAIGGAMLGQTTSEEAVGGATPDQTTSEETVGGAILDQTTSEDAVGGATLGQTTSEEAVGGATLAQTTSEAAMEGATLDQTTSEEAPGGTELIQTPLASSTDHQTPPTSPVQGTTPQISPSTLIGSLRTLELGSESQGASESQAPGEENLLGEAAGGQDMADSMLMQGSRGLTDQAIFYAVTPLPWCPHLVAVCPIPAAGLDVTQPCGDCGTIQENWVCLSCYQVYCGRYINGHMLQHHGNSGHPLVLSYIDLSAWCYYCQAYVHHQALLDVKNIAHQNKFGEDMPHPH
# Assay: HDAC6 Enzyme Assay
# Type: biochemical
# Conditions: compound concentration 0.37 μM, read-out: Percent Inhibition
# Summary of the method: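 Purified human HDAC6 incubated 1 h at 30° C with Ac-Arg-Gly-Lys(Ac)-AMC peptide plus compound or DMSO; stopped with trichostatin A. Deacetylated product trypsin-digested, released AMC read by fluorescence (Ex 340/Em 460 nm). Percent inhibition at one concentration or IC50 from curves relative to DMSO controls.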
row,SMILES,inhibition at 0.37 µM
1,"O=C(NO)c1ccc2ncn(Cc3cccc(-c4ccccc4C(F)(F)F)c3)c(=O)c2c1 [Compound I-124, N-hydroxy-4-oxo-3-{[2′-(trifluoromethyl)biphenyl-3-yl]methyl}-3,4-dihydroquinazoline-6-carboxamide]",91.4%
2,"O=C(NO)c1ccc2c(=O)n(Cc3ccc(C(F)(F)F)cc3)c(-c3cccnc3)nc2c1 [Compound I-133, N-hydroxy-4-oxo-2-pyridin-3-yl-3-[4-(trifluoromethyl)benzyl]-3,4-dihydroquinazoline-7-carboxamide]",92.2%
3,"O=C(NO)c1ccc2ncn(CCc3cccc(-c4cccc(C(F)(F)F)c4)c3)c(=O)c2c1 [Compound I-311, N-hydroxy-4-oxo-3-{2-[3′-(trifluoromethyl)biphenyl-3-yl]ethyl}-3,4-dihydroquinazoline-6-carboxamide]",91.6%
4,"NCCCn1ccc2ccc(C(=O)NO)cc2c1=O [Compound I-173, 2-(3-aminopropyl)-N-hydroxy-1-oxo-1,2-dihydroisoquinoline-7-carboxamide]",75.4%
5,"O=C(NO)c1ccc2ncn(CCC(c3ccccc3)C3CCCCC3)c(=O)c2c1 (stereo not shown) [Compound I-340, 3-(3-cyclohexyl-3-phenylpropyl)-N-hydroxy-4-oxo-3,4-dihydroquinazoline-6-carboxamide]",94.9%
6,"O=C(NO)c1ccc2c(=O)[nH]c(-c3ccccc3)nc2c1 [Compound I-401, N-hydroxy-4-oxo-2-phenyl-3,4-dihydroquinazoline-7-carboxamide]",88.2%

# Same assay, conditions: compound concentration 0.412 μM, read-out: Percent Inhibition
row,SMILES,inhibition at 0.412 µM
1,"O=C(NO)c1ccc2c(=O)[nH]c(COc3ccccc3C(F)(F)F)nc2c1 [Compound I-168, N-hydroxy-4-oxo-2-{[2-(trifluoromethyl)phenoxy]methyl}-3,4-dihydroquinazoline-7-carboxamide]",72.8%
2,"Cc1ccn(CCn2cnc3ccc(C(=O)NO)cc3c2=O)n1 [Compound I-57, N-hydroxy-3-[2-(3-methyl-1H-pyrazol-1-yl)ethyl]-4-oxo-3,4-dihydroquinazoline-6-carboxamide]",77.4%
3,"Cc1ccc(OCCn2ccc3ccc(C(=O)NO)cc3c2=O)cc1 [Compound I-212, N-hydroxy-2-[2-(4-methylphenoxy)ethyl]-1-oxo-1,2-dihydroisoquinoline-7-carboxamide]",96.9%
4,"CC(C)(C)OC(=O)N1CCC(Cn2ccc3ccc(C(=O)NO)cc3c2=O)CC1 [Compound I-184, tert-butyl 4-{[7-[(hydroxyamino)carbonyl]-1-oxoisoquinolin-2(1H)-yl]methyl}piperidine-1-carboxylate]",88.9%
5,"Nc1nc2cc(C(=O)NO)ccc2c(=O)[nH]1 [Compound I-199, 2-amino-N-hydroxy-4-oxo-3,4-dihydroquinazoline-7-carboxamide]",42.4%
6,"CC(C)n1ccc2ccc(C(=O)NO)cc2c1=O [Compound I-171, N-hydroxy-2-isopropyl-1-oxo-1,2-dihydroisoquinoline-7-carboxamide]",87%
7,"O=C(NO)c1ccc2c(=O)n(CC3CC3)cnc2c1 [Compound I-59, 3-(cyclopropylmethyl)-N-hydroxy-4-oxo-3,4-dihydroquinazoline-7-carboxamide]",80.7%
8,"CC(C)(C)OC(=O)N1CCC(NCc2nc3cc(C(=O)NO)ccc3c(=O)[nH]2)CC1 [Compound I-56, tert-butyl 4-[({7-[(hydroxyamino)carbonyl]-4-oxo-3,4-dihydroquinazolin-2-yl}methyl)amino]piperidine-1-carboxylate]",69%
9,"O=C(NO)c1ccc2ccn(CCc3ccc(Cl)cc3)c(=O)c2c1 [Compound I-236, 2-[2-(4-chlorophenyl)ethyl]-N-hydroxy-1-oxo-1,2-dihydroisoquinoline-7-carboxamide]",96.2%
10,"O=C(NO)c1ccc2ccn(CCCOc3ccc4c(c3)CCC4)c(=O)c2c1 [Compound I-42, 2-[3-(2,3-dihydro-1H-inden-5-yloxy)propyl]-N-hydroxy-1-oxo-1,2-dihydroisoquinoline-7-carboxamide]",94.4%
